Reference: the supplement of paper PMC8967900

What was measured:
Assay in all cases: selective drug sensitivity score (sDSS, relative to normal bone marrow) (sDSS (score)); higher = more potent and effective on the cell line relative to normal bone marrow cells
Conditions in all cases: 72 h
CCRF-HSB2 = tested on: CCRF-HSB2
MHH-CALL-4 = tested on: MHH-CALL-4
TANOUE = tested on: TANOUE
380 = tested on: 380
COG-LL-317 = tested on: COG-LL-317
HPB-ALL = tested on: HPB-ALL
COG-LL-355h = tested on: COG-LL-355h
MOLT-4 = tested on: MOLT-4
MHH-CALL-3 = tested on: MHH-CALL-3
NALM-16 = tested on: NALM-16
COG-LL-319h = tested on: COG-LL-319h
JURKAT = tested on: JURKAT
KASUMI-2 = tested on: KASUMI-2
697 = tested on: 697
KARPAS-45 = tested on: KARPAS-45
ALL-SIL = tested on: ALL-SIL
COG-LL-402h = tested on: COG-LL-402h
MN-60 = tested on: MN-60
DND-41 = tested on: DND-41
SUP-B15 = tested on: SUP-B15
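Further: ALL cell lines in 384-well plates, five doses spanning 10,000-fold, each plate scaled between vehicle and 100 µmol/L benzalkonium chloride controls, sDSS an adapted area-under-curve metric.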

Compound	selective drug sensitivity score (CCRF-HSB2)	selective drug sensitivity score (MHH-CALL-4)	selective drug sensitivity score (TANOUE)	selective drug sensitivity score 380	selective drug sensitivity score (COG-LL-317)	selective drug sensitivity score (HPB-ALL)	selective drug sensitivity score (COG-LL-355h)	selective drug sensitivity score (MOLT-4)	selective drug sensitivity score (MHH-CALL-3)	selective drug sensitivity score (NALM-16)	selective drug sensitivity score (COG-LL-319h)	selective drug sensitivity score (JURKAT)	selective drug sensitivity score (KASUMI-2)	selective drug sensitivity score 697	selective drug sensitivity score (KARPAS-45)	selective drug sensitivity score (ALL-SIL)	selective drug sensitivity score (COG-LL-402h)	selective drug sensitivity score (MN-60)	selective drug sensitivity score (DND-41)	selective drug sensitivity score (SUP-B15)
CCS(=O)(=O)N1CCN(c2ccc(Nc3ncc(C(N)=O)c(NC4CC4)n3)cc2)CC1 [Cerdulatinib] (top concentration 10000 nM)	1.34	-5.46	-10.1	-11.9	-7.66	-11.9	-7.46	-7.46	-11.9	-11.4	2.14	-8.66	-11.9	-3.66	-2.36	-0.76	-2.56	-11.9	2.54	0.04
COC(=O)N[C@@H](C)CNc1nccc(-c2cn(C(C)C)nc2-c2cc(Cl)cc(NS(C)(=O)=O)c2F)n1 [Encorafenib] (top concentration 1000 nM)	1.8	0	0	0	0	1.1	1.4	0	0	0	0	1.7	0	8	2.6	0	0	0	0	0.9
Cn1ncc(Cl)c1-c1cc(C(=O)N[C@H](CN)Cc2ccc(F)c(F)c2)oc1Cl [Uprosertib] (top concentration 10000 nM)	0.7	4.6	-1.2	0.6	18.8	-1.4	6.8	9.3	-1.4	5.4	5.3	5.9	8.3	0.3	5.6	1.5	1.7	-1.4	-1.3	-1.4
Nc1ncnc2c1c(-c1cccc(OCc3ccccc3)c1)cn2[C@H]1C[C@@H](CN2CCC2)C1 [NVP-AEW541] (top concentration 10000 nM)	-0.62	0.08	-6.02	4.48	-2.32	1.58	5.38	-3.22	-7.62	-1.42	5.08	-4.72	-3.62	-2.72	-0.92	4.58	-0.72	-3.22	-1.12	-2.02
CC1(C)CCC(c2ccc(Cl)cc2)=C(CN2CCN(c3ccc(C(=O)NS(=O)(=O)c4ccc(N[C@H](CCN5CCOCC5)CSc5ccccc5)c(S(=O)(=O)C(F)(F)F)c4)cc3)CC2)C1 [Navitoclax] (top concentration 10000 nM)	8.92	18.4	-8.58	26.1	20.5	17.8	28.9	15.6	29	19.2	22.1	9.02	24.8	13	22.8	20	23.4	-8.58	15.1	27.5
CC(=O)O[C@]1(C(C)=O)CC[C@H]2[C@@H]3C=C(C)C4=CC(=O)CC[C@]4(C)[C@H]3CC[C@@]21C [Megestrol_acetate] (top concentration 10000 nM)	0.62	7.52	-0.38	7.02	-0.58	-0.58	0.52	0.02	4.22	-0.58	0.42	1.02	-0.58	2.52	2.72	-0.48	-0.38	-0.58	16.8	0.32
Cn1cc(-c2ccc(F)c(C(F)(F)F)c2)nc1C1CCN(c2ncnc3[nH]ncc23)CC1 (top concentration 10000 nM)	-0.14	1.86	0.96	12.3	1.76	-0.14	-0.14	0.36	5.16	-0.14	3.76	-0.14	13.3	0.76	0.06	0.06	-0.14	-0.14	1.16	8.76
FC(F)(F)c1ccc(CNc2ccc(Cc3c[nH]c4ncc(Cl)cc34)cn2)cn1 [Pexidartinib] (top concentration 10000 nM)	1.38	-2.22	-2.22	-2.22	-0.52	-1.92	-1.92	-1.92	-2.22	-1.22	-2.22	1.48	-2.22	3.18	-0.02	-0.52	-2.22	-1.52	-2.12	-0.22
COc1cc(Nc2ncc3c(n2)-c2ccc(Cl)cc2C(c2c(F)cccc2OC)=NC3)ccc1C(=O)O [Alisertib] (top concentration 10000 nM)	26.4	-5.62	-5.62	26.4	29.6	14.3	7.98	21.8	12	0.28	23.3	11.3	18.5	25	27.9	17.2	16.1	-3.42	0.88	24
Nc1ncnc2c1nc(N)n2[C@@H]1O[C@H](CO)[C@@H](O)[C@H]1O [8-amino-adenosine] (top concentration 50000 nM)	6.98	2.18	0.98	9.38	3.28	-3.82	-1.42	-2.52	5.38	4.48	6.78	-5.42	6.08	6.48	-3.32	2.68	5.78	1.58	-0.62	7.28
C[C@H]1C=C2C(=O)O[C@H]3CC[C@@H](C1)[C@@]23O [Galiellalactone] (top concentration 25000 nM)	2.76	-3.84	-0.94	13	7.36	5.16	3.66	-0.44	11.4	6.06	7.46	1.66	-0.44	3.26	5.16	5.56	3.76	2.46	3.86	3.46
C=CC(=O)N1CC/C(=C\c2ccc(F)c([N+](=O)[O-])c2)C(=O)/C(=C/c2ccc(F)c([N+](=O)[O-])c2)C1 [VLX1570] (top concentration 10000 nM)	-2.12	-1.22	-6.32	6.88	2.78	-1.22	6.08	-5.62	5.98	-3.72	2.08	-8.52	-2.62	-1.02	-1.02	-3.62	5.28	-5.32	1.18	1.38
CN(c1ncccc1CNc1nc(Nc2ccc3c(c2)CC(=O)N3)ncc1C(F)(F)F)S(C)(=O)=O (top concentration 10000 nM)	1.42	-0.78	-3.98	4.02	-1.28	-1.18	0.82	1.02	4.82	0.42	4.52	1.52	-0.38	2.62	2.72	4.92	2.42	-1.08	0.62	4.62
O=C(/C=C/c1cccc(S(=O)(=O)Nc2ccccc2)c1)NO [Belinostat] (top concentration 10000 nM)	10.2	7.5	-4.5	16.2	12.9	8.4	10.2	7.6	17.5	2.5	11.8	7.6	17.4	10.1	14.8	8.9	12.6	1.8	7.2	8.5
COC12C(COC(N)=O)C3=C(C(=O)C(C)=C(N)C3=O)N1CC1NC12 (stereo in doubt) [Mitomycin_C] (top concentration 10000 nM)	-2.86	-1.66	-2.86	-1.36	-2.66	-1.16	0.44	-2.86	-2.86	-2.86	9.74	-2.86	4.24	2.34	-2.86	-2.86	-2.86	-2.86	-2.86	1.24
CC(C)(C)c1nc(-c2cccc(NS(=O)(=O)c3c(F)cccc3F)c2F)c(-c2ccnc(N)n2)s1 [Dabrafenib] (top concentration 2500 nM)	4.48	3.08	0.48	-1.52	0.18	2.98	0.38	-1.52	-1.52	-1.52	-0.92	1.08	-1.52	11.5	2.18	3.48	0.48	-0.92	-1.52	1.88
CN1CCC(CNc2ccc3ncc(-c4cccc(OC(F)(F)F)c4)n3n2)CC1 [SGI-1776] (top concentration 10000 nM)	3.12	0.32	-8.18	-2.38	0.02	-4.08	1.72	-2.88	-3.98	-1.38	-1.28	-3.28	0.62	-0.68	-2.08	-1.48	-2.48	-3.78	-1.18	-0.88
CC(C)[C@H](C(=O)Nc1ccc(C(=O)NO)cc1)c1ccccc1 [AR-42] (top concentration 10000 nM)	7.28	8.08	-4.22	10.1	6.48	9.78	6.68	7.08	14.3	1.68	10.8	5.28	16	9.58	10.8	10.2	10.8	1.48	6.98	9.58
